Measured values taken from ChEMBL document CHEMBL6120969, “Distinctive Immune Signatures Driven by Structural Alterations in Desmuramylpeptide NOD2 Agonists” (J Med Chem, 2024).
Activity calls are given as the source filed them. No cut-off for these calls is given here.

Tests used:
BMDC [1] = assay: Adjuvant activity in OVA-immunized C57BL/6J mouse BMDC cells assessed as increase in CD4+ T cell activation incubated for 18 hrs; format: functional, cell-based
Summary of the method: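 Dendritic cells were derived from C57BL/6 mouse bone marrow by 7 days of culture with GM-CSF, then pretreated for 18 h with compounds at 10 μM together with 50 μg/mL ovalbumin and washed. These cells (1 × 10^4/well) were co-cultured with 5 × 10^4 CFSE-labelled OT II CD4+ T cells for 72 h at 37 °C in 5% CO2. T-cell activation was assessed by flow cytometry on live Thy1.2+/CD4+ cells, using CFSE dilution and CD25 expression as readouts. Assays were run in duplicate across two independent biological replicates and analysed with paired t tests.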

PBMC [2] = assay: Immunomodulatory activity in human PBMC cells assessed as increase in IL-4 level at 2 uM incubated for 18 hrs y flow cytometry analysis; format: functional, cell-based
Summary of the method: (§1)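 Human donor PBMCs were isolated with Ficoll-Paque, seeded at 1 × 10^6 cells/mL (500 μL) in 48-well plates, and exposed to compounds at 2 μM or to 0.1% DMSO vehicle without LPS for 18 h at 37 °C, 5% CO2. Cytokines in the cell-free supernatants were then quantified on a flow cytometer with the LEGENDplex Human Essential Immune Response Panel, read against the kit's recombinant standard curves. Data came from four independent replicates and were analysed by two-way ANOVA with Tukey's test.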

BMDC [3] = assay: Adjuvant activity in OVA-immunized C57BL/6J mouse BMDC cells co-cultured with mouse CD4+ T cells assessed as increase in IL-9 level at 10 uM incubated for 18 hrs; format: functional, cell-based
PBMC [4] = assay: Immunomodulatory activity in human PBMC cells assessed as increase in LPS-induced TNF-alpha level at 2 uM incubated for 18 hrs y flow cytometry analysis; format: functional, cell-based
[5] = Anti-inflammatory activity in human PBMC cells assessed as increase in percentage of classical monocytes at 10 uM incubated for 18 hrs by flow cytometry analysis; format: functional
PBMC [6] = assay: Immunomodulatory activity in human PBMC cells assessed as increase in IL-6 level at 2 uM incubated for 18 hrs y flow cytometry analysis; format: functional, cell-based; summary of the method: as §1
PBMC [7] = assay: Immunomodulatory activity in human PBMC cells assessed as increase in LPS-induced MCP-1 level at 2 uM incubated for 18 hrs y flow cytometry analysis; format: functional, cell-based
Summary of the method: (§2)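 With LPS at 10 ng/mL present, human donor PBMCs (1 × 10^6 cells/mL, 500 μL, 48-well plates) were incubated for 18 h at 37 °C, 5% CO2 with compounds at 2 μM or with 0.1% DMSO. Supernatant cytokines were then determined with a LEGENDplex multiplex panel read by flow cytometry against kit recombinant standards, and four independent replicates were assessed by two-way ANOVA with Tukey's test.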

PBMC [8] = assay: Immunomodulatory activity in human PBMC cells assessed as increase in IL-2 level at 2 uM incubated for 18 hrs y flow cytometry analysis; format: functional, cell-based; summary of the method: as §1
PBMC [9] = assay: Immunomodulatory activity in human PBMC cells assessed as increase in IL-1beta level at 2 uM incubated for 18 hrs y flow cytometry analysis; format: functional, cell-based; summary of the method: as §1
PBMC [10] = assay: Immunomodulatory activity in human PBMC cells assessed as increase in IL-10 level at 2 uM incubated for 18 hrs y flow cytometry analysis; format: functional, cell-based; summary of the method: as §1
[11] = Cytotoxicity against human PBMC cells at 10 uM incubated for 4 hrs; format: toxicity, cell-based
Summary of the method: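 Human PBMCs alone were exposed to compounds at 10 μM (vehicle 0.1% DMSO) in parallel with a K562 killing assay. They were then stained with Sytox blue dead cell stain and analysed on an Attune NxT flow cytometer with FlowJo. Direct cytotoxicity was read as Sytox blue-positive cells. Duplicates, three independent biological replicates; one-way ANOVA with Dunnett's test.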

PBMC [12] = assay: Immunomodulatory activity in human PBMC cells assessed as increase in MCP-1 level at 2 uM incubated for 18 hrs y flow cytometry analysis; format: functional, cell-based; summary of the method: as §1
PBMC [13] = assay: Immunomodulatory activity in human PBMC cells assessed as increase in IL-8 level at 2 uM incubated for 18 hrs y flow cytometry analysis; format: functional, cell-based; summary of the method: as §1
PBMC [14] = assay: Immunomodulatory activity in human PBMC cells assessed as increase in IP-10 level at 2 uM incubated for 18 hrs y flow cytometry analysis; format: functional, cell-based; summary of the method: as §1
PBMC [15] = assay: Immunomodulatory activity in human PBMC cells assessed as increase in LPS-induced IL-6 level at 2 uM incubated for 18 hrs y flow cytometry analysis; format: functional, cell-based; summary of the method: as §2
BMDC [16] = assay: Adjuvant activity in OVA-immunized C57BL/6J mouse BMDC cells co-cultured with mouse CD4+ T cells assessed as increase in IL-2 level at 10 uM incubated for 18 hrs; format: functional, cell-based
[17] = Anti-inflammatory activity in human PBMC cells assessed as increase in percentage of intermediate monocytes at 10 uM incubated for 18 hrs by flow cytometry analysis; format: functional
PBMC [18] = assay: Immunomodulatory activity in human PBMC cells assessed as increase in LPS-induced IL-10 level at 2 uM incubated for 18 hrs y flow cytometry analysis; format: functional, cell-based; summary of the method: as §2
PBMC [19] = assay: Immunomodulatory activity in human PBMC cells assessed as increase in LPS-induced IL-12p70 level at 2 uM incubated for 18 hrs y flow cytometry analysis; format: functional, cell-based
PBMC [20] = assay: Immunomodulatory activity in human PBMC cells assessed as increase in TNF-alpha level at 2 uM incubated for 18 hrs y flow cytometry analysis; format: functional, cell-based; summary of the method: as §1
BMDC [21] = assay: Adjuvant activity in OVA-immunized C57BL/6J mouse BMDC cells co-cultured with mouse CD4+ T cells assessed as increase in IL-6 production at 10 uM incubated for 18 hrs by flow cytometry analysis; format: functional, cell-based
PBMC [22] = assay: Immunomodulatory activity in human PBMC cells assessed as increase in LPS-induced IFN-gamma level at 2 uM incubated for 18 hrs y flow cytometry analysis; format: functional, cell-based
BMDC [23] = assay: Adjuvant activity in OVA-immunized C57BL/6J mouse BMDC cells co-cultured with mouse CD8+ T cells assessed as increase in IL-9 production at 10 uM incubated for 18 hrs by flow cytometry analysis; format: functional, cell-based
[24] = Anti-inflammatory activity in human PBMC cells assessed as increase in percentage of non classical monocytes at 10 uM incubated for 18 hrs by flow cytometry analysis; format: functional
[25] = Cytotoxicity against human HEK-Blue hNOD2 cells assessed as metabolic activity at 10 uM incubated for 18 hes by MTT assay; format: toxicity, cell-based; conditions: hek-blue hnod2, 10 µM
PBMC [26] = assay: Immunomodulatory activity in human PBMC cells assessed as increase in IL-12p70 level at 2 uM incubated for 18 hrs y flow cytometry analysis; format: functional, cell-based; summary of the method: as §1
PBMC [27] = assay: Immunomodulatory activity in human PBMC cells assessed as increase in IFN-gamma level at 2 uM incubated for 18 hrs y flow cytometry analysis; format: functional, cell-based; summary of the method: as §1
PBMC [28] = assay: Cytotoxicity against human PBMC cells co-cultured with human K562 cells at 10 uM incubated for 4 hrs; format: functional, cell-based
Summary of the method: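 Statistics used one-way ANOVA with Dunnett's test on duplicate wells from three independent biological replicates. In 96-well plates, 4 × 10^5 human PBMCs per well were exposed to compounds at 10 μM for 18 h, with 0.1% DMSO as vehicle, and then to 1 × 10^4 CFSE-stained K562 cells per well (effector:target 40:1) for 4 h at 37 °C, 5% CO2. Killing was determined as the fraction of K562 cells staining for both CFSE and Sytox blue on an Attune NxT flow cytometer.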

PBMC [29] = assay: Immunomodulatory activity in human PBMC cells assessed as increase in IL-17A level at 2 uM incubated for 18 hrs y flow cytometry analysis; format: functional, cell-based; summary of the method: as §1
PBMC [30] = assay: Immunomodulatory activity in human PBMC cells assessed as increase in TGF-beta1 level at 2 uM incubated for 18 hrs y flow cytometry analysis; format: functional, cell-based; summary of the method: as §1
PBMC [31] = assay: Immunomodulatory activity in human PBMC cells assessed as increase in LPS-induced IL-1beta level at 2 uM incubated for 18 hrs y flow cytometry analysis; format: functional, cell-based
PBMC [32] = assay: Immunomodulatory activity in human PBMC cells assessed as increase in LPS-induced IP-10 level at 2 uM incubated for 18 hrs y flow cytometry analysis; format: functional, cell-based; summary of the method: as §2

CCOC(=O)CC[C@@H](NC(=O)[C@@H](NC(=O)CNC(=O)/C=C/c1ccc(OC(=O)CO[C@H]2CC[C@@]3(C)C(=CC[C@H]4[C@@H]5CC[C@H]([C@H](C)CCCC(C)C)[C@@]5(C)CC[C@@H]43)C2)c(OC)c1)C(C)C)C(=O)OCC
Activity (BMDC [1]): Active
Activity (PBMC [2]): Active
Activity (BMDC [3]): Active
Activity (PBMC [4]): Active
Activity [5]: 0.35%
Activity (PBMC [6]): Active
Activity (PBMC [7]): Active
Activity (PBMC [8]): Active
Activity (PBMC [9]): Active
Activity (PBMC [10]): Active
Activity [11]: Moderate_effect
Activity (PBMC [12]): Active
Activity (PBMC [13]): Active
Activity (PBMC [14]): Active
Activity (PBMC [15]): Active
Activity (BMDC [16]): Active
Activity [17]: 4.53%
Activity (PBMC [18]): Active
Activity (PBMC [19]): Active
Activity (PBMC [20]): Active
Activity (BMDC [21]): Active
Activity (PBMC [22]): Active
Activity (BMDC [23]): Active
Activity [24]: 76.6%
Activity [25]: Non-toxic
Activity (PBMC [26]): Active
Activity (PBMC [27]): Active
Activity (PBMC [28]): Active
Activity (PBMC [29]): Active
Activity (PBMC [30]): Active
Activity (PBMC [31]): Active
Activity (PBMC [32]): Active
